Laboratory results from patent US11059824B2, “Substituted purines as TLR7 agonists” (Primmune Therapeutics, Inc., priority 2018, dated 2021).
“And” between values parts separate entries of the source, which are not always exact repeats. Identical values can stand only once. Counter-ions that a name gives are not always drawn. Marks after values point to notes of the source that are not given here. One block for each molecule: values may come before it.

Key:
[1] = target: human TLR7 (Homo sapiens (Human), UniProt Q9NYK1); experiment: TLR7 reporter assay (HEK293-TLR-NF-κB inducible SEAP reporter); assay type: cell-based; settings: HEK293 cells stably expressing human TLR7 with NF-κB-driven SEAP reporter; 15-24 hours
Description: The engagement of TLRs by cognate ligands triggers downstream signaling cascades, leading to the activation of NF-κB and other transcription factors which initiate various immunomodulatory effects. The human embryonic kidney cell line, HEK293, is essentially non-responsive to TLR agonists, but ectopic expression of TLRs in these cells allows cognate agonists to activate endogenous NF-κB. Accordingly, the HEK293-TLR-NF-κB inducible reporter system is used to assay TLR agonists. HEK293 cell lines stably expressing human TLR7 or TLR8 together with an NF-κB-driven-secreted alkaline phosphatase (SEAP) reporter were invented at InvivoGen (San Diego, Calif., USA) and used to assess compounds of the present invention for TLR7 and TLR8 agonist activities. Cells were seeded at 2-5×10^4 cells/well in 96 well plates ([…]) and treated with various concentrations of compound (10 μl) for 15-24 hours. SEAP activity was determined by measuring OD at 650 nm; the media used to culture the cell lines contains the reagents required for SEAP detection. The EC50 values in Table 2 are calculated from fitting the dose response of measured SEAP activity for each compound to the following equation: Y=ymax*c^nh/(EC50^nh+c^nh)+blank where Y is the experimentally measured OD650 at concentration c of test article, blank is the observed OD650 in the absence of TLR7 agonist, ymax is the difference between the measured OD650 in the presence of either 28.5 μM resiquimod or 1.675 μM CL307 and the blank and values of EC50 and nh are determined by nonlinear least squares analysis.

[2] = tested on: interferon-α production in hPBMCs; experiment: Induction of interferon-α production in hPBMCs; assay type: cell-based, human; settings: interferon-α production from hPBMCs; for Weighted MEC: geometric mean of all individual MECs across all donors, 24 hours; for individual MEC values: per donor
Method: Treatment of hPBMCs with a TLR7 agonist typically induces substantial production of interferon-α as well as lesser amounts of a variety of other cytokines and chemokines. A typical experiment uses hPBMCs isolated from a healthy donor and placed in replicate cell culture wells; typically 1.0-7.5×10^6 cells are placed in each well. Test compound is added and the cells cultured for 24 hours at 37° C. in a humidified atmosphere containing 5% CO2 post-addition; untreated controls are included. Secreted interferon-α production is measured using an a multisubtype interferon-α ELISA kit like those from PBL Assay Sciences or specifically as IFNα2a as part of a panel of cytokines and chemokines using luminex methodologies. The minimal effective concentration (MEC) is the minimum concentration in a dose response curve where a significant increase in interferon-α production (generally at least 20 pg/ml) is observed above baseline. MEC values for each compound are determined for at least three donors. The weighted MEC for each compound is the geometric mean of all individual MECs across all donors. Concentrations tested typically consist of a two-fold dilution series starting at 100 μM. In the calculation of weighted MEC, any value >100 μM is arbitrarily set to 200 μM unless all MECs for a compound exceed 100 μM

Chain of human TLR7 (Q9NYK1 27-1049): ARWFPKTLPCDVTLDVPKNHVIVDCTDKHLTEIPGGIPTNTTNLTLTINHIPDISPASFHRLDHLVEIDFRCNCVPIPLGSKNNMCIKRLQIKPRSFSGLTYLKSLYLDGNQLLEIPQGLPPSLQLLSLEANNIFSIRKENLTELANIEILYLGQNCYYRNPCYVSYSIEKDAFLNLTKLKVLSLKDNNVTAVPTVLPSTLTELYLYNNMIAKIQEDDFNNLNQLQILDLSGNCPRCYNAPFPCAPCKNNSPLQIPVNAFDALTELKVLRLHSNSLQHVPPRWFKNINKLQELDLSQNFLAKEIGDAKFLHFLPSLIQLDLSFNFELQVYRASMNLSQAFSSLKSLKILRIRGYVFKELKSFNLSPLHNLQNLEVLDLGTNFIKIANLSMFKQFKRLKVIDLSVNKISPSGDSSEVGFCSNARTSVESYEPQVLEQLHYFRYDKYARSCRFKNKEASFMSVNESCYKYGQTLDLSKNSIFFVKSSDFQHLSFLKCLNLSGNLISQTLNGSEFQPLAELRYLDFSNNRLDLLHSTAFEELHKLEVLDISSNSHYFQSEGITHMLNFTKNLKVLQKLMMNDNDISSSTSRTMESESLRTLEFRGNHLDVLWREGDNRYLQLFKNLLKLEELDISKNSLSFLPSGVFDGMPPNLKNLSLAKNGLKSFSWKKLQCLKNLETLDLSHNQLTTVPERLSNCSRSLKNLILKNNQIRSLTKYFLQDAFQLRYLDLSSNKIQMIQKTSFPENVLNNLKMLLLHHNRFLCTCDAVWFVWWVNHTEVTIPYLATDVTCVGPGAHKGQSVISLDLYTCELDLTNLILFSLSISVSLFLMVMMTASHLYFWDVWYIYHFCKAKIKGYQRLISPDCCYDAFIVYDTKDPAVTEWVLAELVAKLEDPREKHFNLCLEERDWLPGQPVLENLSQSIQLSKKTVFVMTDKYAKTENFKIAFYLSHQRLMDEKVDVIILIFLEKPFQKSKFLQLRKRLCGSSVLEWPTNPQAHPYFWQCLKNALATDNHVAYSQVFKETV

EC50 [1]: 1160 µM
SMILES: Nc1nc2c(c(=O)[nH]1)n(Cc1ccc(C(F)(F)F)cc1)c(=O)n2[C@@H]1O[C@H](CO)C[C@H]1O [Compound 35, 2-Amino-9-((2R,3R,5S)-3-hydroxy-5-(hydroxymethyl)tetrahydrofuran-2-yl)-7-(4-(trifluoromethyl)benzyl)-7,9-dihydro-1H-purine-6,8-dione]
Weighted MEC [2]: 79* μM

EC50 [1]: 1210 µM
SMILES: C=CCn1c(=O)n([C@@H]2O[C@H](CO)C[C@H]2O)c2nc(N)[nH]c(=O)c21 [Compound 36, 7-Allyl-2-amino-9-((2R,3R,5S)-3-hydroxy-5-(hydroxymethyl)tetrahydrofuran-2-yl)-7,9-dihydro-1H-purine-6,8-dione]
Weighted MEC [2]: 100 µM

EC50 [1]: 564 µM
SMILES: CCCCn1c(=O)n([C@@H]2O[C@H](CO)C[C@H]2O)c2nc(N)[nH]c(=O)c21 [Compound 37, 2-Amino-7-butyl-9-((2R,3R,5S)-3-hydroxy-5-(hydroxymethyl)tetrahydrofuran-2-yl)-7,9-dihydro-1H-purine-6,8-dione]
Weighted MEC [2]: 50 µM

EC50 [1]: > 500 µM
SMILES: NCCn1c(=O)n([C@@H]2O[C@H](CO)[C@H](O)[C@H]2O)c2nc(N)[nH]c(=O)c21 [Compound 23, 2-Amino-7-(2-aminoethyl)-9-((2R,3R,4R,5R)-3,4-dihydroxy-5-(hydroxymethyl)tetrahydrofuran-2-yl)-7,9-dihydro-1H-purine-6,8-dione hydrochloride]

EC50 [1]: 512 µM
SMILES: Nc1nc2c(c(=O)[nH]1)n(Cc1cccc(F)c1)c(=O)n2[C@@H]1O[C@H](CO)C[C@H]1O [Compound 34, 2-Amino-7-(3-fluorobenzyl)-9-((2R,3R,5S)-3-hydroxy-5-(hydroxymethyl)tetrahydrofuran-2-yl)-7,9-dihydro-1H-purine-6,8-dione]
Weighted MEC [2]: less than or equal to 40 μM and 40 μM | individual MEC values [2]: < 100 µM

EC50 [1]: 688 µM
SMILES: Nc1nc2c(c(=O)[nH]1)n(Cc1ccccc1)c(=O)n2[C@@H]1O[C@H](CO)C[C@H]1O [Compound 33, 2-Amino-7-benzyl-9-((2R,3R,5S)-3-hydroxy-5-(hydroxymethyl)tetrahydrofuran-2-yl)-7,9-dihydro-1H-purine-6,8-dione]
Weighted MEC [2]: 79* μM

EC50 [1]: 567 µM
SMILES: COCCn1c(=O)n([C@@H]2O[C@H](CO)[C@H](O)[C@H]2O)c2nc(N)[nH]c(=O)c21 [Compound 22, 2-Amino-9-((2R,3R,4R,5R)-3,4-dihydroxy-5-(hydroxymethyl)tetrahydrofuran-2-yl)-7-(2-methoxyethyl)-7,9-dihydro-1H-purine-6,8-dione]
Weighted MEC [2]: >100* μM

EC50 [1]: 520 µM
SMILES: COC(=O)CCCn1c(=O)n([C@@H]2O[C@H](CO)[C@H](O)[C@H]2O)c2nc(N)[nH]c(=O)c21 [Compound 21, Methyl 4-(2-amino-9-((2R,3R,4R,5R)-3,4-dihydroxy-5-(hydroxymethyl)tetrahydrofuran-2-yl)-6,8-dioxo-1,6,8,9-tetrahydro-7H-purin-7-yl)butanoate]
Weighted MEC [2]: >100* μM

EC50 [1]: 470 µM
SMILES: C#CCn1c(=O)n([C@@H]2O[C@H](CO)[C@H](F)[C@H]2O)c2nc(N)[nH]c(=O)c21 [Compound 28, 2-Amino-9-((2R,3S,4R,5R)-4-fluoro-3-hydroxy-5-(hydroxymethyl)tetrahydrofuran-2-yl)-7-(prop-2-yn-1-yl)-7,9-dihydro-1H-purine-6,8-dione]
Weighted MEC [2]: less than or equal to 40 μM and 33 μM | individual MEC values [2]: < 100 µM

The remaining lines, values behind:

SMILES: CCCCn1c(=O)n([C@@H]2O[C@H](CO)[C@H](O)[C@H]2O)c2nc(N)[nH]c(=O)c21 [Compound 18, 2-Amino-7-butyl-9-((2R,3R,4R,5R)-3,4-dihydroxy-5-(hydroxymethyl)tetrahydrofuran-2-yl)-7,9-dihydro-1H-purine-6,8-dione]
EC50 [1]: 330 µM | Weighted MEC [2]: less than or equal to 40 μM and 37 μM | individual MEC values [2]: < 100 µM

SMILES: Nc1nc2c(c(=O)[nH]1)n(CC#CCO)c(=O)n2[C@@H]1O[C@H](CO)[C@H](O)[C@H]1O [Compound 11, 2-Amino-9-((2R,3R,4R,5R)-3,4-dihydroxy-5-(hydroxymethyl)tetrahydrofuran-2-yl)-7-(4-hydroxybut-2-yn-1-yl)-7,9-dihydro-1H-purine-6,8-dione]
EC50 [1]: 249 µM | Weighted MEC [2]: 79 µM

SMILES: Cn1c(=O)n([C@@H]2O[C@H](CO)[C@H](O)[C@H]2O)c2nc(N)[nH]c(=O)c21 [Compound 15, 2-Amino-9-((2R,3R,4R,5R)-3,4-dihydroxy-5-(hydroxymethyl)tetrahydrofuran-2-yl)-7-methyl-7,9-dihydro-1H-purine-6,8-dione]
EC50 [1]: > 500 µM

SMILES: CC#CCn1c(=O)n([C@@H]2O[C@H](CO)[C@H](O)[C@H]2O)c2nc(N)[nH]c(=O)c21 [Compound 6, 2-Amino-7-(but-2-yn-1-yl)-9-((2R,3R,4R,5R)-3,4-dihydroxy-5-(hydroxymethyl)tetrahydrofuran-2-yl)-7,9-dihydro-1H-purine-6,8-dione]
EC50 [1]: 835 µM | Weighted MEC [2]: 79 µM

SMILES: Nc1nc2c(c(=O)[nH]1)n(C/C=C/CO)c(=O)n2[C@@H]1O[C@H](CO)[C@H](O)[C@H]1O [Compound 8, 2-Amino-9-((2R,3R,4R,5R)-3,4-dihydroxy-5-(hydroxymethyl)tetrahydrofuran-2-yl)-7-((E)-4-hydroxybut-2-en-1-yl)-7,9-dihydro-1H-purine-6,8-dione]
EC50 [1]: 413 µM | Weighted MEC [2]: >100* μM

SMILES: Nc1nc2c(c(=O)[nH]1)n(C/C=C/C(=O)O)c(=O)n2[C@@H]1O[C@H](CO)[C@H](O)[C@H]1O [Compound 9, (E)-4-(2-Amino-9-((2R,3R,4R,5R)-3,4-dihydroxy-5-(hydroxymethyl)tetrahydrofuran-2-yl)-6,8-dioxo-1,6,8,9-tetrahydro-7H-purin-7-yl)but-2-enoic Acid]
EC50 [1]: 15 µM | Weighted MEC [2]: >100* μM

SMILES: Nc1nc2c(c(=O)[nH]1)n(CCCCO)c(=O)n2[C@@H]1O[C@H](CO)[C@H](O)[C@H]1O [Compound 19, 2-Amino-9-((2R,3R,4R,5R)-3,4-dihydroxy-5-(hydroxymethyl)tetrahydrofuran-2-yl)-7-(4-hydroxybutyl)-7,9-dihydro-1H-purine-6,8-dione]
EC50 [1]: 491 µM | Weighted MEC [2]: >100* μM

SMILES: CCCn1c(=O)n([C@@H]2O[C@H](CO)[C@H](O)[C@H]2O)c2nc(N)[nH]c(=O)c21 [Compound 17, 2-Amino-9-((2R,3R,4R,5R)-3,4-dihydroxy-5-(hydroxymethyl)tetrahydrofuran-2-yl)-7-propyl-7,9-dihydro-1H-purine-6,8-dione]
EC50 [1]: 337 µM | Weighted MEC [2]: 100* μM

SMILES: C=CCn1c(=O)n([C@@H]2O[C@H](CO)[C@H](O)[C@H]2O)c2nc(N)[nH]c(=O)c21 [Compound 2, 7-Allyl-2-amino-9-((2R,3R,4R,5R)-3,4-dihydroxy-5-(hydroxymethyl)tetrahydrofuran-2-yl)-7,9-dihydro-1H-purine-6,8-dione]
EC50 [1]: 298 µM | Weighted MEC [2]: 79 µM

SMILES: COC(=O)/C=C/Cn1c(=O)n([C@@H]2O[C@H](CO)[C@H](O)[C@H]2O)c2nc(N)[nH]c(=O)c21 [Compound 10, Methyl (E)-4-(2-amino-9-((2R,3R,4R,5R)-3,4-dihydroxy-5-(hydroxymethyl)tetrahydrofuran-2-yl)-6,8-dioxo-1,6,8,9-tetrahydro-7H-purin-7-yl)but-2-enoate]
EC50 [1]: 248 µM | Weighted MEC [2]: >100* μM

SMILES: Nc1nc2c(c(=O)[nH]1)n(CCCC(=O)O)c(=O)n2[C@@H]1O[C@H](CO)[C@H](O)[C@H]1O [Compound 20, 4-(2-Amino-9-((2R,3R,4R,5R)-3,4-dihydroxy-5-(hydroxymethyl)tetrahydrofuran-2-yl)-6,8-dioxo-1,6,8,9-tetrahydro-7H-purin-7-yl)butanoic Acid]
EC50 [1]: 79 µM | Weighted MEC [2]: >100* μM

SMILES: C/C=C/Cn1c(=O)n([C@@H]2O[C@H](CO)[C@H](O)[C@H]2O)c2nc(N)[nH]c(=O)c21 [Compound 7, 2-Amino-7-((E)-but-2-en-1-yl)-9-((2R,3R,4R,5R)-3,4-dihydroxy-5-(hydroxymethyl)tetrahydrofuran-2-yl)-7,9-dihydro-1H-purine-6,8-dione]
EC50 [1]: 535 µM | Weighted MEC [2]: 63 µM
